Target: T1, human IL-17AA (Homo sapiens, UniProt Q16552)
T1 construct: host or cells: HEK (human embryonic kidney) cells
T1 sequence (Q16552 24-155): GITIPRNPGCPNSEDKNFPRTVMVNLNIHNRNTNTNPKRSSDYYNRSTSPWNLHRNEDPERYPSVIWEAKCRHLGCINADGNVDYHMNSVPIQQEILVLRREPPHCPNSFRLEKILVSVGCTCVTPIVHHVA
Assay: IL-8 release assay in human epithelial keratinocytes adult (HEKa)
Format: cell-based
Settings: HEKa cells, 3 ng/mL HEK-human IL-17AA + 10 ng/mL human TNFalpha; read-out: Rel EC50 IL-8 release assay
In short: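 IL-8 release, quantified by HTRF and normalized to controls, reports IL-17 signaling in HEKa cells treated with compound plus final 3 ng/mL IL-17AA (HEK-derived) and 10 ng/mL TNF-alpha for 68-72 h; TNF-alpha-only wells set 100% inhibition. Four-parameter logistic fits (r^2>0.9) give relative IC50 and Emax; PrestoBlue flags cytotoxicity.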

| Structure (SMILES) | EC50 [nM] |
| --- | --- |
| CNc1[nH]nc(C)c1-c1ccc(NC(=O)[C@@H](NC(=O)c2ccnn2C)C2CCCCC2)cc1 [Example 452, N-[(1S)-1-cyclohexyl-2-[4-[5-methyl-3-(methylamino)-1H-pyrazol-4-yl]anilino]-2-oxo-ethyl]-2-methyl-pyrazole-3-carboxamide] | > 1000 |
| Cc1n[nH]c(C)c1-c1ccc(NC(=O)[C@@H](NC(=O)c2ccnn2C(C)CO)[C@@H]2CC(C)(C)CCC2(F)F)cc1 (single isomer, unassigned) [Example 211] | < 100 |
| CCC(C)[C@H](NC(=O)OC(C)(C)C)C(=O)Nc1ccc(-c2cncn2C)cc1 (stereo partly drawn) [Example 94, tert-butyl N-[(1S)-2-methyl-1-[[4-(3-methylimidazol-4-yl)phenyl]carbamoyl]butyl] carbamate] | > 1000 |
| Cc1n[nH]c(C)c1-c1ccc(NC(=O)[C@@H](NC(=O)c2ccnn2C(C)CO)C(C)C(C)(C)C)cc1 (single isomer, unassigned) [Example 178] | < 100 |
| Cc1n[nH]c(C)c1-c1ccc(NC(=O)C(NC(=O)c2ccnn2C)C2CCCC2C)cc1 (racemic) [Example 252, N-[2-[4-(3,5-dimethyl-1H-pyrazol-4-yl)anilino]-1-(2-methylcyclopentyl)-2-oxo-ethyl]-2-methyl-pyrazole-3-carboxamide] | 100 to 1000 |
| Cc1n[nH]c(N)c1-c1ccc(NC(=O)[C@@H](NC(=O)c2ccnn2C)C(C2CCC2)C2CCC2)cc1 [Example 451, N-[(1S)-1-[[4-(3-amino-5-methyl-1H-pyrazol-4-yl)phenyl]carbamoyl]-2,2-di(cyclobutyl)ethyl]-2-methyl-pyrazole-3-carboxamide] | < 100 |
| Cc1n[nH]c(C)c1-c1ccc(NC(=O)[C@@H](NC(=O)c2conc2C(C)C)C2CCC3(CC2)CC3)cc1 [Example 263, N-[(1S)-2-[4-(3,5-dimethyl-1H-pyrazol-4-yl)anilino]-2-oxo-1-spiro[2.5]octan-6-yl-ethyl]-3-isopropyl-isoxazole-4-carboxamidet] | 100 to 1000 |
| Cc1n[nH]c(C)c1-c1ccc(NC(=O)[C@@H](NC(=O)c2ccnn2C)[C@@H]2CCc3ccc(Cl)cc32)cc1 [Example 77, N-[(1S)-1-[(1R)-6-chloroindan-1-yl]-2-[4-(3,5-dimethyl-1H-pyrazol-4-yl)anilino]-2-oxo-ethyl]-2-methyl-pyrazole-3-carboxamide] | 100 to 1000 |
| Cc1n[nH]c(C)c1-c1ccc(NC(=O)[C@@H](NC(=O)c2cnn3ccccc23)C2CCCCC2)cc1 [Example 68, N-[(1S)-1-cyclohexyl-2-[4-(3,5-dimethyl-1H-pyrazol-4-yl)anilino]-2-oxo-ethyl]pyrazolo[1,5-a]pyridine-3-carboxamide] | 100 to 1000 |
| Cn1cncc1-c1ccc(NC(=O)C(NC(=O)OC(C)(C)C)C(c2ccccc2)C2CCC2)cc1 (single isomer, unassigned) [Example 311, tert-butyl N-[1-[cyclobutyl(phenyl)methyl]-2-[4-(3-methylimidazol-4-yl)anilino]-2-oxo-ethyl]carbamate] | > 1000 |
| Cc1ncn(C)c1-c1ccc(NC(=O)[C@@H](NC(=O)c2ccnn2C)C2CCCC2)cc1 [Example 335, N-[(1S)-1-cyclopentyl-2-[4-(3,5-dimethylimidazol-4-yl)anilino]-2-oxo-ethyl]-2-methyl-pyrazole-3-carboxamide] | > 1000 |
| Cc1n[nH]c(C)c1-c1ccc(NC(=O)[C@@H](NC(=O)c2cnc3ccccn23)C2CCCCC2)cc1 [Example 293, N-[(1S)-1-cyclohexyl-2-[4-(3,5-dimethyl-1H-pyrazol-4-yl)anilino]-2-oxo-ethyl]imidazo[1,2-a]pyridine-3-carboxamide] | 100 to 1000 |
| CC(C)n1nccc1C(=O)N[C@H](C(=O)Nc1ccc(-c2c(C(F)(F)F)ncn2C)cc1)C1CCCCC1 [Example 371A, N-[(1S)-1-cyclohexyl-2-[4-[3-methyl-5-(trifluoromethyl)imidazol-4-yl]anilino]-2-oxo-ethyl]-2-isopropyl-pyrazole-3-carboxamide] | 100 to 1000 |
| Cc1n[nH]c(C)c1-c1ccc(NC(=O)[C@@H](NC(=O)c2cnnn2C)C2CCCCC2)cc1 [Example 60, N-[(1S)-1-cyclohexyl-2-[4-(3,5-dimethyl-1H-pyrazol-4-yl)anilino]-2-oxo-ethyl]-3-methyl-triazole-4-carboxamide] | 100 to 1000 |
| Cc1n[nH]c(C)c1-c1ccc(NC(=O)[C@@H](NC(=O)c2ccnn2C(C)CO)[C@@H]2CC(C)(C)CCC2(F)F)cc1 (single isomer, unassigned) [Example 210] | < 100 |
| Cc1n[nH]c(C)c1-c1ccc(NC(=O)[C@@H](NC(=O)c2ccnn2C2CC2)C(C2CC2)C2CC2)cc1 [Example 116, 2-cyclopropyl-N-[(1S)-1-(dicyclopropylmethyl)-2-[4-(3,5-dimethyl-1H-pyrazol-4-yl)anilino]-2-oxo-ethyl]pyrazole-3-carboxamide] | < 100 |
| Cc1n[nH]c(C)c1-c1ccc(NC(=O)[C@@H](NC(=O)c2ccnn2C(C)CO)C(C)C(C)(C)C)cc1 (single isomer, unassigned) [Example 177] | 100 to 1000 |
| Cc1n[nH]c(C)c1-c1ccc(NC(=O)[C@@H](NC(=O)c2ccnn2C(C)C)C(C2CCC2)C2CCC2)cc1 [Example 39] | < 100 |
| Cc1n[nH]c(C)c1-c1ccc(NC(=O)[C@@H](NC(=O)c2ccnn2C(C)C2CC2)C(C2CC2)C2CC2)cc1 (stereo partly drawn) [Example 222, 2-(1-cyclopropylethyl)-N-[(1S)-1-(dicyclopropylmethyl)-2-[4-(3,5-dimethyl-1H-pyrazol-4-yl)anilino]-2-oxo-ethyl]pyrazole-3-carboxamide] | < 100 |
| Cc1n[nH]c(C)c1-c1ccc(NC(=O)C(NC(=O)c2ccnn2CCC(C)O)C2CCCCCCC2)cc1 (single isomer, unassigned) [Example 144, N-[1-cyclooctyl-2-[4-(3,5-dimethyl-1H-pyrazol-4-yl)anilino]-2-oxo-ethyl]-2-(3-hydroxybutyl)pyrazole-3-carboxamide] | < 100 |
| CC(C)n1nccc1C(=O)N[C@H](C(=O)Nc1ccc(-c2c(C(C)(C)O)ncn2C)cc1)C(C1CC1)C1CC1 [Example 448, N-[(1S)-1-(Dicyclopropylmethyl)-2-[4-[5-(1-hydroxy-1-methyl-ethyl)-3-methyl-imidazol-4-yl]anilino]-2-oxo-ethyl]-2-isopropyl-pyrazole-3-carboxamide] | 100 to 1000 |
| CCn1nccc1C(=O)N[C@H](C(=O)Nc1ccc(-c2c(C)n[nH]c2C)cc1)C1CCC(F)(F)CC1 [Example 18, N-[(1S)-1-(4,4-difluorocyclohexyl)-2-[4-(3,5-dimethyl-1H-pyrazol-4-yl)anilino]-2-oxo-ethyl]-2-ethyl-pyrazole-3-carboxamide] | 100 to 1000 |
| Cc1n[nH]c(C)c1-c1ccc(NC(=O)[C@@H](NC(=O)c2ccccc2)C(C2CC2)C2CC2)cc1 [Example 167, N-[(1S)-1-(dicyclopropylmethyl)-2-[4-(3,5-dimethyl-1H-pyrazol-4-yl)anilino]-2-oxo-ethyl]benzamide] | 100 to 1000 |
| Cc1n[nH]c(C)c1-c1ccc(NC(=O)[C@@H](NC(=O)OCc2cccnc2)C2CCCCC2)cc1 [Example 430, 3-pyridylmethyl N-[(1S)-1-cyclohexyl-2-[4-(3,5-dimethyl-1H-pyrazol-4-yl)anilino]-2-oxo-ethyl]carbamate] | 100 to 1000 |
